The data set has as its system Rattus norvegicus. Particulars: oral.
The mark [1] stands for this setting: short-term, duration: 28 days, gavage, M/F, Sprague-Dawley, Deaths + Clinical Observation: Tremor Locomotor activity decrease1000 Ptosis Prone position Lateral position Soiled peritoneal region ….
Setting [2] is: subchronic, gavage, M, Sprague-Dawley, Clinical Observation: Salivation + Urinalysis: Volume increase, Tubular epithelial cell + Blood Chemistry: PL increasegamma-GTP increase, TP….
The mark [3] stands for this setting: short-term, duration: 28 days, gavage, F, Sprague-Dawley, Blood Chemistry: Glu decrease, ChE increase, BUN increase + Absolute Organ Weight: Thyroid increase(trend) + Relative Organ Weight: Thyroid ….
Setting [4] is: short-term, duration: 28 days, gavage, M, Sprague-Dawley, Blood Chemistry: Glu decrease, ChE increase, BUN increase + Absolute Organ Weight: Thyroid increase(trend) + Relative Organ Weight: Thyroid ….
Setting [5] is: short-term, duration: 28 days, gavage, M/F, CD(SD)ICS BR, Clinical Observation: Fur-staining Hypoactivity(one animal)Hunched posture(one animal)Weight loss(one animal)Pallor(one animal) + Urinalysis….
Where [6] appears, read: short-term, duration: 28 days, gavage, M, Sprague-Dawley, Clinical Observation: Locomotor activity decrease, SalivationRespiratory rate decrease, Incomplete eyelid opening + Body Weight Changes: ….

Where only a bound is given, the exact number is not on record here.

The record followed here is EPA's ToxValDB 9.5.

Usually LOAEL stands for the lowest tested level that showed an adverse finding. As a reminder, the NOAEL is the highest dose or exposure tested at which no adverse effect was seen.

With `C=CCOC(=O)c1ccccc1C(=O)OCC=C` [Diallyl phthalate], the NOEL (subchronic, duration: 13 weeks, gavage, M/F, Fischer 344, Deaths + Histopathology: Liver/periportal-Hepatocellular alteration Liver/periportal-Necrosis Liver/periportal-Fibrosis Liver/bile duct- …) came out at 25 mg/kg-day.
On to `Clc1ccc(Cl)nn1` [Pyridazine, 3,6-dichloro-], for which the NOEL (short-term, duration: 28 days, gavage, F, Sprague-Dawley, Body Weight Changes: decrease, Weight gain decrease + Food Consumption: decrease + Urinalysis: BIL increase + Blood Chemistry: TP increase, …) turned out to be 10 mg/kg-day.
Turning to `Oc1cccc2cccnc12` [8-Hydroxyquinoline], the NOEL (subchronic, gavage, M, Sprague-Dawley, Clinical Observation: Salivation + Functional Observational Battery: Salivation + Body Weight Changes: Body weight gain decrease(tendency)…) worked out at 100 mg/kg-day.
As to `BrCCCCCCCCCCBr` [1,10-Dibromodecane-], under “short-term, duration: 28 days, gavage, M/F, Sprague-Dawley, Clinical Observation: Salivation + Water Consumption: increase + Blood Chemistry: BUN increase, Cl increase + Absolute Organ Weight: Liver …”, the NOEL was less than 8 mg/kg-day.
As for `C=CCOC(=O)c1ccccc1-c1ccccc1C(=O)OCC=C`, the NOEL (short-term, duration: 28 days, gavage, M/F, Clinical Observation: Salivation + Hematology: APTT increase, PT increase + Blood Chemistry: GOT increase, GPT increase, gamma-GTP increase…) was determined as 6 mg/kg-day.
Take `O=C(CO)[C@@H](O)[C@H](O)[C@H](O)CO[C@H]1O[C@H](CO)[C@@H](O)[C@H](O)[C@H]1O` [6-O-Hexopyranosylhex-2-ulofuranose]: the NOEL (subchronic, duration: 13 weeks, diet, Wistar) came out at 10%.
For the compound `Cc1cc(O)ccc1Cl` [4-Chloro-3-methylphenol], under setting [1], the LOAEL was found to be 250 mg/kg-day, the LOEL is 250 mg/kg-day, the NOAEL turned out to be 60 mg/kg-day and the NOEL was found to be 60 mg/kg-day.
As for `CCCCCl` [1-Chlorobutane], for the setting “subchronic, duration: 13 weeks, gavage, M/F, Fischer 344, Deaths + Clinical Observation: Convulsion + Body Weight Changes: decrease + Histopathology: Spleen-Extramedullary hematopoiesis”, the NOEL came to 60 mg/kg-day.
For `CN(C)c1ccc(C(c2ccccc2)c2ccc(N(C)C)cc2)cc1` [Leucomalachite green], where the note is “subchronic, diet, M, Fischer 344, Body Weight Changes: decrease + Hematology: Hct decrease, Hgb decrease, RBC decrease, Ret increase + Blood Chemistry: Alb decrease, Cho …”, the NOEL is less than 27.8 mg/kg-day.
As to `CCC[CH2][Sn]([CH2]CCC)([CH2]CCC)[CH2]CCC` [Tetrabutyltin], the NOAEL (subchronic, duration: 33 days, diet, M, Wistar, Body Weight Changes: Weight gain decrease + Absolute Organ Weight: Thymus decrease + Relative Organ Weight: Thymus decrease, Spleen decrease…) worked out at 9.6 mg/kg-day.
Consider `CN(C)c1ccc(C(=C2C=CC(=[N+](C)C)C=C2)c2ccccc2)cc1.[Cl-]` [Malachite green], for which the NOEL (subchronic, diet, M/F, Fischer 344, Body Weight Changes: decrease + Hematology: Hct decrease, RBC decrease, Hgb decrease + Blood Chemistry: Cho increase, gamma-GTP increase + …) came to 12 mg/kg-day.
On to `COc1cc(N)ccc1NC(=O)c1ccc(N)cc1` [4-Amino-N-(4-amino-2-methoxyphenyl)benzamide], for which the NOEL (short-term, duration: 28 days, gavage, M/F, Deaths + Clinical Observation: Locomotor activity increase, Tremor (temporary)Loss of righting reflex Motor ataxia Lethargy (severe) + Blood…) worked out at 10 mg/kg-day.
As to `O=[N+]([O-])c1ccc(Cl)c(Cl)c1` [3,4-Dichloronitrobenzene], the NOEL (subchronic, gavage, M, Sprague-Dawley, Hematology: RBC decrease, Hct decrease, MCV increase, MCH increase, Hgb decrease, MCHC decrease, Ret increase + Blood Chemistry: T-Bil: …) was less than 4 mg/kg-day.
Take `O=N[O-].[Na+]` [Sodium nitrite]: the NOEL was less than 40 mg/kg-day (chronic, duration: 14 weeks, water, F, Fischer 344, Deaths + Clinical Observation: Brown discoloration in eyes Cyanosis Hypoactive Alopecia + Body Weight Changes: decrease + Water Consumption…) and less than 83.6 mg/kg-day (chronic, duration: 14 weeks, water, M/F, Fischer 344, Deaths + Clinical Observation: Brown discoloration in eyes Cyanosis Hypoactive Alopecia + Body Weight Changes: decrease + Water Consumption…).
As to `O.O.[Ba+2].[Cl-].[Cl-]` [Barium chloride dihydrate], the NOEL was determined as 10 mg/kg-day (subchronic, duration: 13 weeks, water, F, Fischer 344, Deaths + Body Weight Changes: decrease + Water Consumption: decrease + Blood Chemistry: Pi increase + Absolute Organ Weight: Kidney increase…) and 19 mg/kg-day (subchronic, duration: 13 weeks, water, M/F, Fischer 344, Deaths + Body Weight Changes: decrease + Water Consumption: decrease + Blood Chemistry: Pi increase + Absolute Organ Weight: Kidney increase…).
As for `CC(C)(C)c1cc2nc(-c3ccc(N)cc3)nn2[nH]1`, under “short-term, duration: 28 days, gavage, M/F, Deaths + Clinical Observation: Locomotor activity decrease, Piloerection + Body Weight Changes: Gain decrease + Hematology: RBC decrease, …”, the NOEL turned out to be 2 mg/kg-day.
Regarding `CCCCCCCC1CCCC1=O` (stereo not given) [2-Heptylcyclopentanone], under setting [2], the NOAEL worked out at 200 mg/kg-day and the NOEL was determined as 50 mg/kg-day.
Consider `CC(C)OC1(OC(C)C)CCCCC1` [1,1-Diisopropoxycyclohexane], for which the NOEL (subchronic, gavage, M, Sprague-Dawley, Clinical Observation: Salivation + Food Consumption: increase + Blood Chemistry: T-Cho increase + Absolute Organ Weight: Liver increase, …) worked out at 40 mg/kg-day.
As to `C1C2CC3CC1CC(C2)C3` [Adamantane], under setting [3], the LOEL worked out at 1000 mg/kg-day and the NOEL is 200 mg/kg-day. Under setting [4], the LOEL turned out to be 40 mg/kg-day and the NOEL was less than 40 mg/kg-day.
As for `COC(=O)C1=C(C)NC(C)=C(C(=O)OCCN(C)Cc2ccccc2)C1c1cccc([N+](=O)[O-])c1.Cl` (stereo not given) [Nicardipine hydrochloride], under “subchronic, duration: 35 days, gavage, M/F, Sprague-Dawley, Deaths + Clinical Observation: Locomotor activity decrease, Prone position Dyspnea Ataxic gait Ptosis Piloerection Respiratory rate increase…”, the NOEL was 10 mg/kg-day.
With `Cc1cc(O)c(C)c(C)c1O` [2,3,5-Trimethylhydroquinone], for the setting “subchronic, gavage, M, Sprague-Dawley, Deaths + Clinical Observation: Salivation Locomotor activity decrease, Irregular respiration + Body Weight Changes: decrease + Hematology: …”, the NOEL is less than 10 mg/kg-day.
As to `CCCC(C)(COC(N)=O)COC(=O)NC(C)C` (stereo not given) [Carisoprodol], the NOEL by setting is: (subchronic, gavage, M/F, Fischer 344, Deaths + Clinical Observation: Lethargy Ataxia + Absolute Organ Weight: Right kidney increase, Liver increase + Relative Organ Weight: Right…) less than 100 mg/kg-day; (subchronic, gavage, M/F, Fischer 344, Deaths + Clinical Observation: Lethargy Diarrhea Rough hair coat Prostration Urine stain in the vaginal area Ataxia + Body Weight Changes: …) less than 100 mg/kg-day.
In the case of `C=CC(C)(O)CCCC(C)CCCC(C)CCCC(C)C` (stereo not given) [Isophytol], under setting [5], the NOAEL was determined as 500 mg/kg-day and the NOEL turned out to be 250 mg/kg-day.
In the case of `CC(O)c1ccccc1` (stereo not drawn) [alpha-Methylbenzyl alcohol], the NOEL (subchronic, duration: 13 weeks, gavage, M/F, Fischer 344, Deaths + Clinical Observation: Ataxia Rapid breathing Lethargy + Body Weight Changes: decrease + Urinalysis: -- + Absolute Organ Weight: …) was less than 93 mg/kg-day.
Turning to `CCCCCCCCCCC=O` [Undecanal], the NOAEL (subchronic, duration: 42 days, gavage, M, CD(SD), Clinical Observation: Salivation (transient)) came to 1000 mg/kg-day.
With `Cc1ccc(Nc2ccc(C)cc2)cc1` [4,4'-Dimethyldiphenylamine], where the note is “short-term, duration: 28 days, gavage, M/F, Clinical Observation: Salivation + Blood Chemistry: GOT increase, GPT increase, gamma-GTP increase, T-CHO increase, TG increase, IP …”, the NOEL was 30 mg/kg-day.
Take `C[Si](C)(C)O` [Trimethylsilanol]: the no observed adverse effect level (NOAEL) (short-term, duration: 28 days, gavage, M/F, Wistar, Clinical Observation: Staggering gait + Body Weight Changes: Body weight gain decrease + Relative Organ Weight: Liver increase + …) was found to be 250 mg/kg-day.
Take `CC(C)CC(C)(C#N)N=NC(C)(C#N)CC(C)C` (stereo not given) [2,2'-Azobis[2,4-dimethylvaleronitrile]]: the NOEL (subchronic, gavage, M, Sprague-Dawley, Clinical Observation: Salivation + Blood Chemistry: gamma- GTP increase, TG decrease + Absolute Organ Weight: Liver increase, R + Relative …) came out at 10 mg/kg-day.
Regarding `Nc1ccc(Nc2ccccc2)cc1` [N-Phenyl-1,4-benzenediamine], where the note is “subchronic, duration: 90 days, diet, M, Wistar, Body Weight Changes: Body weight gain decrease + Food Consumption: decrease + Hematology: RBC decrease, HGB decrease, HCT decrease, MCV …”, the NOAEL was 96 mg/kg-day.
Consider `CN(c1nccc(=O)[nH]1)C1CCN(c2nc3ccccc3n2Cc2ccc(F)cc2)CC1` [Mizolastine], for which the NOAEL (chronic, duration: 182 days, gavage, M/F, Sprague-Dawley, Clinical Observation: Salivation + Urinalysis: Volume increase + Blood Chemistry: IP increase + Absolute Organ Weight: Liver increase, …) came to 5 mg/kg-day.
Regarding `Cc1[nH]n(-c2ccccc2)c(=O)c1N=Nc1ccc(-c2ccc(N=Nc3c(C)[nH]n(-c4ccccc4)c3=O)c(Cl)c2)cc1Cl` [C.I. Pigment Orange 13], the NOEL (subchronic, gavage, Sprague-Dawley) was 1000 mg/kg-day.
For the compound `NNC(=O)CCCCC(=O)NN` [Hexanedihydrazide], the NOEL (subchronic, gavage, M, Sprague-Dawley, Clinical Observation: Emaciation R Incontinence of urine R Diarrhea R Loose stool R + Relative Organ Weight: Thymus increase, Kidney …) amounted to 85 mg/kg-day.
With `OCC1CO1` (stereo not given) [Glycidol], for the setting “subchronic, duration: 13 weeks, gavage, M/F, Fischer 344, Deaths + Body Weight Changes: decrease + Absolute Organ Weight: -- + Histopathology: Brain /cerebellum-Necrosis Brain-Demyelination Kidney-…”, the NOEL was less than 25 mg/kg-day.
Turning to `CN(C)C(=O)Nc1ccc(Cl)cc1` [Monuron], under setting [6], the NOAEL is less than 40 mg/kg-day and the NOEL was less than 40 mg/kg-day.
Take `NCc1ccc(Cl)nc1` [5-(Aminomethyl)-2-chloropyridine]: the NOEL (short-term, duration: 28 days, gavage, M/F, Clinical Observation: Salivation Locomotor activity decrease, Respiration rate decrease, Ptosis Lacrimation + Body Weight Changes: Weight …) came to 8 mg/kg-day.
In the case of `c1cc(OCC2CO2)cc(OCC2CO2)c1` (stereo not given) [Diglycidyl resorcinol ether], the NOEL (subchronic, duration: 13 weeks, gavage, M/F, Fischer 344, Deaths + Body Weight Changes: decrease + Histopathology: Stomach/forestomach-Inflammation Stomach/forestomach-Basal cell hyperplasia Stomach…) was less than 12.5 mg/kg-day.
On to `Cl.Cl.NCCNCCNCCN` [Trientine hydrochloride], for which, under “chronic, duration: 92 days, drinking water, F, Fischer 344, Histopathology: Uterus: Increased prevalence of dilatation”, the NOAEL came out at 669 mg/kg-day.
With `O=C1CCc2ccccc2O1` [3,4-Dihydrocoumarin], the NOEL (subchronic, duration: 13 weeks, gavage, M/F, Fischer 344, Deaths + Body Weight Changes: decrease + Hematology: Plt decrease, Hct decrease, Hgb decrease, RBC decrease, WBC decrease, Lympho decrease…) was less than 75 mg/kg-day.
